In patent US4069035A, “1-(2-Carboxyaryl)-3-aryl-1,2,4-triazoles and use as herbicides” (E. I. Du Pont de Nemours and Company, priority 1976, dated 1978):

How the values were obtained:
[1] = pKa by titration against aqueous NaOH (half neutralization point), buffer range; format: physicochemical; conditions: for pKa: dimethylsulfoxide/water, 0.09995N NaOH, half neutralization point; for Buffer Range: range 1 acid:10 salt to 10 acid:1 salt
Procedure: The selected acids listed in Table IX (65-84 mg samples, weighed accurately) were respectively dissolved in a mixture of dimethylsulfoxide (25 ml) and water (10-25 ml) and titrated against 0.09995N aqueous sodium hydroxide using an automatic titrimeter (Metrohm Potentiograph Model E 336). According to the general theory of buffer solutions (A. I. Vogel, "A Textbook of Quantitative Inorganic Analysis, Theory and Practice," Longmans, Green, London (1948)), the following relationship exists in a dilute solution (0.05-0.2M) of a weak acid to which small additions of acid or base are made
pH = pKa + log [Salt]/[Acid]
The pH of the solution is mainly determined by the pKa of the acid, and in general the buffering capacity (ability to withstand pH change upon addition of acid or base) is maintained within the range 1 acid:10 salt to 10 acid:1 salt, a hundred-fold variation of concentration, or a change of two pH units. The buffer ranges of each of the acids is shown in the third column of Table IX. The acids are useful as buffers in weakly acidic solutions.

cassia [2] = assay: preemergence plant growth test; format: in vivo; conditions: 2k/ha
Description: (§1) The imidazole and triazole compounds of the invention are useful as plant growth modifiers when applied to plants. The compounds are applied to the immediate area where the plant is developing and growing, including preemergence and postemergence application.

corn [3] = assay: preemergence plant growth test; format: in vivo; conditions: 2k/ha
Description: as §1

nutsedge [4] = assay: preemergence plant growth test; format: in vivo; conditions: 2k/ha
Description: as §1

rice [5] = assay: preemergence plant growth test; format: in vivo; conditions: 2k/ha
Description: as §1

sorghum [6] = assay: preemergence plant growth test; format: in vivo; conditions: 2k/ha
Description: as §1

wheat [7] = assay: preemergence plant growth test; format: in vivo; conditions: 2k/ha
Description: as §1

wild oats [8] = assay: preemergence plant growth test; format: in vivo; conditions: 2k/ha
Description: as §1

crabgrass = assay: preemergence plant growth test; format: in vivo; conditions: 2k/ha
Description: as §1

soybeans [9] = assay: preemergence plant growth test; format: in vivo; conditions: 2k/ha; for epinastic response: soybeans
Description: as §1

bush beans = assay: postemergence plant growth test; format: in vivo; conditions: 2k/ha
Description: as §1

corn [10] = assay: postemergence plant growth test; format: in vivo; conditions: 2k/ha
Description: as §1

cotton = assay: postemergence plant growth test; format: in vivo; conditions: 2k/ha
Description: as §1

morning glory [11] = assay: postemergence plant growth test; format: in vivo; conditions: 2k/ha
Description: as §1

sorghum [12] = assay: postemergence plant growth test; format: in vivo; conditions: 2k/ha
Description: as §1

soybeans [13] = assay: postemergence plant growth test; format: in vivo; conditions: 2k/ha
Description: as §1

barnyard grass [14] = assay: preemergence plant growth test; format: in vivo; conditions: 2k/ha
Description: as §1

cocklebur [15] = assay: preemergence plant growth test; format: in vivo; conditions: 2k/ha
Description: as §1

morning glory [16] = assay: preemergence plant growth test; format: in vivo; conditions: 2k/ha
Description: as §1

cassia [17] = assay: postemergence plant growth test; format: in vivo; conditions: 2k/ha
Description: as §1

cocklebur [18] = assay: postemergence plant growth test; format: in vivo; conditions: 2k/ha
Description: as §1

nutsedge [19] = assay: postemergence plant growth test; format: in vivo; conditions: 2k/ha
Description: as §1

rice [20] = assay: postemergence plant growth test; format: in vivo; conditions: 2k/ha
Description: as §1

wheat [21] = assay: postemergence plant growth test; format: in vivo; conditions: 2k/ha
Description: as §1

wild oats [22] = assay: postemergence plant growth test; format: in vivo; conditions: 2k/ha
Description: as §1

barnyard grass [23] = assay: postemergence plant growth test; format: in vivo; conditions: 2k/ha
Description: as §1

Row | Structure (SMILES) | pKa [1] | Buffer Range [1] | epinastic response (cassia [2]) | epinastic response (corn [3]) | epinastic response (nutsedge [4]) | epinastic response (rice [5]) | epinastic response (sorghum [6]) | epinastic response (wheat [7]) | epinastic response (wild oats [8]) | epinastic response (soybeans [9]) | epinastic response (bush beans) | epinastic response (corn [10]) | epinastic response (cotton) | epinastic response (morning glory [11]) | epinastic response (sorghum [12]) | axillary stimulation (soybeans [13]) | epinastic response (cassia [17]) | epinastic response (cocklebur [18]) | epinastic response (rice [20]) | epinastic response (soybeans [13]) | further results
1 | O=C(O)c1ccccc1-n1cnc(-c2ccc(Cl)cc2)n1 [Example 6, 1-(2-carboxyphenyl)-3-(4-chlorophenyl)-1,2,4-triazole] | 5.48 | 4.5 - 6.5 pH Units | epinastic responses | epinastic responses | epinastic responses | epinastic responses | epinastic responses | epinastic responses | epinastic responses |  |  |  |  |  |  |  |  |  |  |  | 
2 | Cc1ccc(-c2cn(-c3ccccc3C(=O)O)cn2)cc1 [Example 4, 1-(2-carboxyphenyl)-4-(4-methylphenyl)imidazole] | 5.59 | 4.6 - 6.6 pH Units |  | very strong epinastic responses |  | very strong epinastic responses | moderate to strong response | moderate to strong response | moderate to strong response | very strong epinastic responses | epinastic response | epinastic response | epinastic response | epinastic response | epinastic response | strong axillary stimulation |  |  |  |  | epinastic response (crabgrass): very strong epinastic responses
3 | O=C(O)c1ccccc1-n1cnc(-c2ccccc2)c1 [Example 1, 1-(2-carboxyphenyl)-4-phenylimidazole] | 4.91 | 3.9 - 5.9 pH Units | very strong hormonal effect (epinastic response) | very strong hormonal effect (epinastic response) |  | very strong hormonal effect (epinastic response) |  | very strong hormonal effect (epinastic response) |  | very strong hormonal effect (epinastic response) | epinastic response | epinastic response |  | epinastic response | epinastic response |  | epinastic response | epinastic response | epinastic response | epinastic response | epinastic response (barnyard grass [14]): very strong hormonal effect (epinastic response); epinastic response (cocklebur [15]): very strong hormonal effect (epinastic response); emergence (crabgrass): inhibited; epinastic response (morning glory [16]): very strong hormonal effect (epinastic response); emergence (nutsedge [4]): inhibited; emergence (soybeans [9]; soybean): inhibited; emergence (wild oats [8]): inhibited; growth (nutsedge [19]): retarded; epinastic response (wheat [21]): epinastic response; epinastic response (wild oats [22]): epinastic response
4 | O=C(O)c1ccccc1-n1cnc(-c2ccccc2)n1 [Example 5, 1-(2-carboxyphenyl)-3-phenyl-1,2,4-triazole] | 5.91 | 4.9 - 6.9 pH Units |  |  |  |  |  |  |  |  |  |  |  |  | epinastic response |  |  |  | epinastic response | epinastic response | growth (barnyard grass [23]): retarded; epinastic response (nutsedge [19]): epinastic response; growth (wheat [21]): retarded; growth (wild oats [22]): retarded
5 | O=C(O)c1ccccc1-n1cnc(-c2ccc(Cl)cc2)c1 [Example 2, 1-(2-carboxyphenyl)-4-(4-chlorophenyl)imidazole] |  |  |  | very strong epinastic responses |  | very strong epinastic responses | very strong response | very strong response | very strong response | very strong epinastic responses | epinastic response | epinastic response | epinastic response | epinastic response | epinastic response | strong axillary stimulation |  |  |  |  | epinastic response (crabgrass): very strong epinastic responses
6 | COc1ccc(-c2cn(-c3ccccc3C(=O)O)cn2)cc1 [Example 3, 1-(2-carboxyphenyl)-4-(4-methoxyphenyl)imidazole] | 5.08 | 4.1 - 6.1 pH Units |  |  |  |  |  |  |  |  | epinastic response | epinastic response | epinastic response |  | epinastic response | axillary stimulation | epinastic response | epinastic response | epinastic response | epinastic response | axillary stimulation (barnyard grass [23]): axillary stimulation; axillary stimulation (cassia [17]): axillary stimulation

The next lines start with results.

Row | pKa [1] | Buffer Range [1] | Structure (SMILES) | epinastic response (cassia [2]) | epinastic response (corn [3]) | epinastic response (nutsedge [4]) | epinastic response (rice [5]) | epinastic response (sorghum [6]) | epinastic response (wheat [7]) | epinastic response (wild oats [8]) | epinastic response (soybeans [9]) | epinastic response (bush beans) | epinastic response (corn [10]) | epinastic response (cotton) | epinastic response (morning glory [11]) | epinastic response (sorghum [12]) | axillary stimulation (soybeans [13]) | epinastic response (cassia [17]) | epinastic response (cocklebur [18]) | epinastic response (rice [20]) | epinastic response (soybeans [13]) | further results
7 | 4.73 | 3.7 - 5.7 pH Units | COc1ccc(-c2ncn(-c3ccccc3C(=O)O)n2)cc1 [Example 8, 1-(2-carboxyphenyl)-3-(4-methoxyphenyl)-1,2,4-triazole] | epinastic responses | epinastic responses | epinastic responses | epinastic responses | epinastic responses | epinastic responses | epinastic responses |  |  |  |  |  |  |  |  |  |  |  | 
8 | 6.19 | 5.2 - 7.2 pH Units | O=C(O)c1ccccc1-n1cnc(-c2ccc(Cl)c(Cl)c2)n1 [Example 7, 1-(2-carboxyphenyl)-3-(3,4-dichlorophenyl)-,2,4-triazole] | epinastic responses | epinastic responses | epinastic responses | epinastic responses | epinastic responses | epinastic responses | epinastic responses |  |  |  |  |  |  |  |  |  |  |  | 
9 | 4.81 | 3.8 - 5.8 pH Units | Cc1ccc(-c2ncn(-c3ccccc3C(=O)O)n2)cc1 [Example 9, 1-(2-carboxyphenyl)-3-(4-methylphenyl)-1,2,4-triazole] | epinastic response |  | epinastic response | epinastic response | epinastic response |  |  |  |  |  |  | epinastic response | epinastic response |  | epinastic response | epinastic response | epinastic response |  | epinastic response (cocklebur [15]): epinastic response; epinastic response (morning glory [16]): epinastic response; growth (bush beans): retarded; epinastic response (nutsedge [19]): epinastic response
